In patent US20220257774A1, “AROMATIC AMINE AR AHD BET TARGETING PROTEIN DEGRADATION CHIMERA COMPOUND AND USE” (HINOVA PHARMACEUTICALS INC., priority 2019, published 2022):

Tested on: LNCaP/AR cells
Test: Inhibition of the proliferation of LNCap/AR cells (CCK-8)
Type: cell-based
Conditions: 144 h; LNCaP/AR cells, 6 days culture, CCK-8; read-out: LNCap/AR IC50
In short: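 Proliferation was read by CCK-8 (OD 450 nm, 1 h) after six days of compound exposure. Cells were seeded at 1000 per well overnight, then dosed in duplicate over nine 3-fold steps with a top final concentration of 10 μM in 0.1% DMSO; IC50 was fitted from inhibition curves.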

SMILES	IC50 [nM]
CC(=O)O[C@@H]1C[C@@H](C(=O)N[C@@H](C)c2ccc(-c3scnc3C)cc2)N(C(=O)[C@@H](NC(=O)CCN2CCC(CN(c3ccc(-n4ccnc4)c(Br)c3)c3cc(-c4c(C)noc4C)ccc3C)CC2)C(C)(C)C)C1 [Compound 99, (3R,5S)-1-((S)-2-(3-(4-(((3-Bromo-4-(1H-imidazol-1-yl)phenyl)(5-(3,5-dimethylisoxazol-4-yl)-2-methylphenyl)amino)methyl)piperidin-1-yl)propionamide)-3,3-dimethylbutyryl)-5-(((S)-1-(4-(4-methylthiazol-5-yl)phenyl)ethyl)carbamoyl)pyrrolidine-3-yl acetate]	501 to 2000
Cc1ccc(-c2c(C)noc2C)cc1N(CC1CCN(CCC(=O)N[C@H](C(=O)N2C[C@H](O)C[C@H]2C(=O)N[C@@H](C)c2ccc(-c3scnc3C)cc2)C(C)(C)C)CC1)c1ccc(-n2ccnc2)c(Br)c1 [Compound 100, (2S,4R)-1-((S)-2-(3-(4-(((3-Bromo-4-(1H-imidazol-1-yl)phenyl)(5-(3,5-dimethylisoxazol-4-yl)-2-methylphenyl)amino)methyl)piperidin-1-yl)propionamide)-3,3-dimethylbutyryl)-4-hydroxy-N—((S)-1-(4-(4-methylthiazol-5-yl)phenyl)ethyl)pyrrolidine-2-formamide]	501 to 2000
CC(=O)O[C@@H]1C[C@@H](C(=O)N[C@@H](C)c2ccc(-c3scnc3C)cc2)N(C(=O)[C@@H](NC(=O)COC2CN(CCN(c3ccc(-n4ccnc4)c(Br)c3)c3cc(-c4c(C)noc4C)ccc3C)C2)C(C)(C)C)C1 [Compound 101, (3R,5S)-1-((S)-2-(2-((1-(2-((3-Bromo-4-(1H-imidazol-1-yl)phenyl)(5-(3,5-dimethylisozazol-4-yl)-2-methylphenyl)amino)ethyl)azetidin-3-yl)oxy)acetylamino)-3,3-dimethylbutyryl)-5-(((S)-1-(4-(4-methylthiazol-5-yl)phenyl)ethyl)carbamoyl)pyrrolidine-3-yl acetate]	> 2000
Cc1ccc(-c2c(C)noc2C)cc1N(CCCCCCNc1cccc2c1CN(C1CCC(=O)NC1=O)C2=O)c1ccc(-n2ccnc2)c(Br)c1 (stereo not shown) [Compound 118, 3-(4-((6-((3-Bromo-4-(1H-imidazol-1-yl)phenyl)(5-(3,5-dimethylisoxazol-4-yl)-2-methylphenyl)amino)hexyl)amino)-1-oxoisoindolin-2-yl)piperidine-2,6-dione]	> 2000

Further lines, results first:

IC50 [nM]	SMILES
101 to 500	Cc1ccc(-c2c(C)noc2C)cc1N(CCCC1CCN(CC(=O)N[C@H](C(=O)N2C[C@H](O)C[C@H]2C(=O)N[C@@H](C)c2ccc(-c3scnc3C)cc2)C(C)(C)C)CC1)c1ccc(-n2ccnc2)c(Br)c1 [Compound 141, (2S,4R)-1-((S)-2-(2-(4-(3-((3-bromo-4-(1H-imidazol-1-yl)phenyl)(5-(3,5-dimethylisoxazol-4-yl)-2-methylphenyl)amino)propyl)piperidin-1-yl)acetamido)-3,3-dimethylbutyryl)-4-hydroxy-N—((S)-1-(4-(4-methylthiazol-5-yl)phenyl)ethyl)tetrahydropyrrole-2-amide]
101 to 500	CC(=O)O[C@@H]1C[C@@H](C(=O)N[C@@H](C)c2ccc(-c3scnc3C)cc2)N(C(=O)[C@@H](NC(=O)CN2CCC(CCCN(c3ccc(-n4ccnc4)c(Br)c3)c3cc(-c4c(C)noc4C)ccc3C)CC2)C(C)(C)C)C1 [Compound 142, (3R,5S)-1-((S)-2-(2-(4-(3-((3-Bromo-4-(1H-imidazol-1-yl)phenyl)(5-(3,5-4-yl)-2-methylphenyl)amino)propyl)piperidin-1-yl)acetamido)-3,3-dimethylbutyryl)-5-(((S)-1-(4-(4-methylthiazol-5-yl)phenyl)ethyl)carbamoyl)pyrrolidinyl-3-acetate]
101 to 500	Cc1ccc(-c2c(C)noc2C)cc1N(CCCCCOCC(=O)Nc1cccc2c1CN(C1CCC(=O)NC1=O)C2=O)c1ccc(C2(C#N)CC2)cc1 (stereo not shown) [Compound 144]
